What was measured:
rats [1] = experiment: 4-hour acute inhalation toxicity in rats (LC-50); type: in vivo; conditions: 4 hr inhalation in air, 14-day post-dose monitoring
Method: The 4-hour acute inhalation toxicity in rats (LC-50) was measured by dosing animals in air at the amounts shown in Table 2 for 4 hours, followed by 14-day post-dose monitoring. Based on the animal test results and the vapor concentration of the test compound, the LC-50 values were estimated.

[2] = Log KOW (octanol/water partition coefficient) by HPLC, OECD Method 117; type: physicochemical
Method: In these Examples, values of Log KOW (octanol/water partition coefficients) were determined by HPLC using the method described in OECD Method 117.

rats [3] = experiment: Acute single dose oral toxicity in rats; type: in vivo; conditions: single oral dose 2000 mg/kg body weight
Method: The acute single dose oral toxicity of Comparative Example CE2 was examined in rats dosed at 2000 mg/kg body weight. […] Based on this study, the LD50 of CE2 was estimated to be >2000 mg/kg body weight.

COC(F)(C(F)(F)C(F)(F)F)C(F)(C(F)(F)F)C(F)(F)F (centres unmarked) [CE1, NOVEC 7300]
LC-50 (4 hr Inhalation rats) (rats [1]): >430 mg/L | Log KOW [2]: 4.3

FC(F)(F)C(F)(F)C1(F)OCCC1(C(F)(F)F)C(F)(F)F (centres unmarked) [Example 1, 2-fluoro-2-(1,1,2,2,2-pentafluoroethyl)-3,3-bis(trifluoromethyl)tetrahydrofuran]
LC-50 (4 hr Inhalation rats) (rats [1]): >1000 ppmv | Log KOW [2]: 4.4

FC(F)(F)C(F)(F)C(F)(F)C1(C(F)(F)F)CCOC1(F)C(F)(C(F)(F)F)C(F)(F)F (centres unmarked) [Example 2, 2-fluoro-3-(1,1,2,2,3,3,3-heptafluoropropyl)-2-[1,2,2,2-tetrafluoro-1-(trifluoromethyl)ethyl]-3-(trifluoromethyl)tetrahydrofuran]
Log KOW [2]: 5.8

NOVEC 7700 [Comparative Example CE2]
clinical observations during the post dose recovery period (rats [3]): No adverse clinical observations | necropsy results (rats [3]): normal for all animals | Log KOW [2]: 6.6

Source: US11325893B2, “Hydrofluoroethers and methods of using same” (3M INNOVATIVE PROPERTIES COMPANY, priority 2018, dated 2022)
